Results from patent US6737383B1, “Herbicidal oxadiazolidines” (priority 1999, dated 2004).

Assays:
[1] = tested on: smallflower flatsedge; assay: Test B flood test smallflower flatsedge; assay type: in vivo, Cyperus difformis
Procedure, shortened: (§1)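 Read-out is a visual response score from 0 (no effect) to 10 (complete control), assigned by comparison with untreated controls. Treatment was applied at the 2-leaf stage, and plants stayed in the greenhouse for twelve to sixteen days before scoring.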

[2] = tested on: blackgrass; assay: Test B pre/postemergence blackgrass; assay type: in vivo, Alopecurus myosuroides
Procedure, shortened: (§2)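 Test chemicals in a non-phytotoxic solvent mixture with surfactant were sprayed preemergence onto planted seeds and postemergence onto plants 2 to 18 cm tall (1- to 4-leaf stage). After twelve to sixteen days in a greenhouse, injury was visually rated against untreated controls from 0 (no effect) to 10 (complete control).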

[3] = tested on: rice; assay: Test B flood test rice; assay type: in vivo, Oryza sativa
Procedure, shortened: as §1

[4] = tested on: velvetleaf; assay: Test B pre/postemergence velvetleaf; assay type: in vivo, Abutilon theophrasti
Procedure, shortened: as §2

[5] = tested on: purple nutsedge; assay: Test B pre/postemergence purple nutsedge; assay type: in vivo, Cyperus rotundus
Procedure, shortened: as §2

[6] = tested on: rape; assay: Test B pre/postemergence rape; assay type: in vivo, Brassica napus
Procedure, shortened: as §2

[7] = tested on: wheat; assay: Test B pre/postemergence wheat; assay type: in vivo, Triticum aestivum
Procedure, shortened: as §2

[8] = tested on: duck salad; assay: Test B flood test duck salad; assay type: in vivo, Heteranthera limosa
Procedure, shortened: as §1

[9] = tested on: crabgrass; assay: Test B pre/postemergence crabgrass; assay type: in vivo, Digitaria sanguinalis
Procedure, shortened: as §2

[10] = tested on: pigweed; assay: Test B pre/postemergence pigweed; assay type: in vivo, Amaranthus retroflexus
Procedure, shortened: as §2

[11] = tested on: surinam grass; assay: Test B pre/postemergence surinam grass; assay type: in vivo, Brachiaria decumbens
Procedure, shortened: as §2

[12] = tested on: cocklebur; assay: Test B pre/postemergence cocklebur; assay type: in vivo, Xanthium strumarium
Procedure, shortened: as §2

[13] = tested on: giant foxtail; assay: Test B pre/postemergence giant foxtail; assay type: in vivo, Setaria faberii
Procedure, shortened: as §2

[14] = tested on: corn; assay: Test B pre/postemergence corn; assay type: in vivo, Zea mays
Procedure, shortened: as §2

[15] = tested on: sugar beet; assay: Test B pre/postemergence sugar beet; assay type: in vivo, Beta vulgaris
Procedure, shortened: as §2

[16] = tested on: morningglory; assay: Test B pre/postemergence morningglory; assay type: in vivo, Ipomoea hederacea
Procedure, shortened: as §2

[17] = Rate 62 g/ha, headed Pre-emergence (flood test species), scale 0 to 10 (0 no effect, 10 complete control)
[18] = Rate 125 g/ha, Pre-emergence, flood test species, scale 0 to 10 where 0 is no effect and 10 is complete control
[19] = Rate 250 g/ha, Pre-emergence, flood-test species, scale 0 to 10, 0 is no effect, 10 is complete control
[20] = Rate 500 g/ha, Pre-emergence, flood test species, scale 0 to 10 (0 no effect, 10 complete control)
[21] = Preemergence, Rate 62 g/ha, scale of 0 to 10 where 0 is no effect and 10 is complete control
[22] = Preemergence, Rate 250 g/ha, scale of 0 to 10 where 0 is no effect and 10 is complete control
[23] = Preemergence, Rate 500 g/ha, scale of 0 to 10 where 0 is no effect and 10 is complete control
[24] = Rate 62 g/ha, Postemergence, scale 0 to 10 (0 no effect, 10 complete control)
[25] = Rate 125 g/ha, Postemergence, scale of 0 to 10 where 0 is no effect and 10 is complete control
[26] = Rate 250 g/ha, Postemergence, scale of 0 to 10 where 0 is no effect and 10 is complete control
[27] = Rate 500 g/ha, Postemergence, scale 0 to 10, 0 no effect, 10 complete control

SMILES: CCN(C(=O)n1oc(=O)n(C2CC2)c1=O)C1CCCCC1 [Compound 298]
- S. Flatsedge plant response rating [1, 17]: 0
- S. Flatsedge plant response rating [1, 18]: 0
- S. Flatsedge plant response rating [1, 19]: 0
- S. Flatsedge plant response rating [1, 20]: 0
- Blackgrass plant response rating [2, 21]: 0
- Blackgrass plant response rating [2, 22]: 0
- Plant response rating, Blackgrass [2, 23]: 0
- Blackgrass plant response rating [2, 24]: 0
- Blackgrass plant response rating [2, 25]: 0
- Plant response rating, Blackgrass [2, 26]: 0
- Blackgrass plant response rating [2, 27]: 0
- Rice plant response rating [3, 17]: 0
- Rice plant response rating [3, 18]: 0
- Rice plant response rating [3, 19]: 0
- Rice plant response rating [3, 20]: 0
- Velvetleaf plant response rating [4, 21]: 0
- Velvetleaf plant response rating (0 to 10 scale) ([4]; Preemergence, Rate 125 g/ha): 0
- Velvetleaf plant response rating [4, 22]: 0
- Plant response rating, Velvetleaf [4, 23]: 0
- Velvetleaf plant response rating [4, 24]: 0
- Velvetleaf plant response rating [4, 25]: 0
- Plant response rating, Velvetleaf [4, 26]: 0
- Nutsedge plant response rating [5, 21]: 0
- Nutsedge plant response rating (0 to 10 scale) ([5]; Preemergence, Rate 125 g/ha): 0
- Nutsedge plant response rating [5, 22]: 0
- Plant response rating, Nutsedge [5, 23]: 0
- Nutsedge plant response rating [5, 24]: 0
- Nutsedge plant response rating [5, 25]: 0
- Plant response rating, Nutsedge [5, 26]: 0
- Rape plant response rating [6, 21]: 0
- Rape plant response rating (0 to 10 scale) ([6]; Preemergence, Rate 125 g/ha): 0
- Rape plant response rating [6, 22]: 0
- Plant response rating, Rape [6, 23]: 0
- Rape plant response rating [6, 24]: 0
- Rape plant response rating [6, 25]: 0
- Plant response rating, Rape [6, 26]: 0
- Wheat plant response rating [7, 21]: 0
- Wheat plant response rating (0 to 10 scale) ([7]; Preemergence, Rate 125 g/ha): 0
- Wheat plant response rating [7, 22]: 0
- Plant response rating, Wheat [7, 23]: 0
- Wheat plant response rating [7, 24]: 0
- Wheat plant response rating [7, 25]: 0
- Plant response rating, Wheat [7, 26]: 0
- Ducksalad plant response rating [8, 17]: 0
- Ducksalad plant response rating [8, 18]: 0
- Ducksalad plant response rating [8, 19]: 0
- Ducksalad plant response rating [8, 20]: 0
- Crabgrass plant response rating [9, 21]: 0
- Crabgrass plant response rating (0 to 10 scale) ([9]; Preemergence, Rate 125 g/ha): 0
- Crabgrass plant response rating [9, 22]: 0
- Plant response rating, Crabgrass [9, 23]: 0
- Crabgrass plant response rating [9, 24]: 0
- Crabgrass plant response rating [9, 25]: 0
- Plant response rating, Crabgrass [9, 26]: 0
- Redroot pigweed plant response rating [10, 21]: 0
- Redroot pigweed plant response rating (0 to 10 scale) ([10]; Preemergence, Rate 125 g/ha): 0
- Redroot pigweed plant response rating [10, 22]: 0
- Plant response rating, Redroot pigweed [10, 23]: 0
- Redroot pigweed plant response rating [10, 24]: 0
- Redroot pigweed plant response rating [10, 25]: 0
- Plant response rating, Redroot pigweed [10, 26]: 0
- B. signalgrass plant response rating [11, 21]: 0
- B. signalgrass plant response rating (0 to 10 scale, 0 is no effect, 10 is complete control) ([11]; Preemergence, Rate 125 g/ha): 0
- B. signalgrass plant response rating [11, 22]: 0
- Plant response rating, B. signalgrass [11, 23]: 0
- B. signalgrass plant response rating [11, 24]: 0
- B. signalgrass plant response rating [11, 25]: 0
- Plant response rating, B. signalgrass [11, 26]: 0
- B. signalgrass plant response rating [11, 27]: 0
- Cocklebur plant response rating [12, 21]: 0
- Cocklebur plant response rating (0 to 10 scale) ([12]; Preemergence, Rate 125 g/ha): 0
- Cocklebur plant response rating [12, 22]: 0
- Plant response rating, Cocklebur [12, 23]: 0
- Cocklebur plant response rating [12, 24]: 0
- Cocklebur plant response rating [12, 25]: 0
- Plant response rating, Cocklebur [12, 26]: 0
- Cocklebur plant response rating [12, 27]: 0
- Giant foxtail plant response rating [13, 21]: 0
- Giant foxtail plant response rating (0 to 10 scale) ([13]; Preemergence, Rate 125 g/ha): 0
- Giant foxtail plant response rating [13, 24]: 0
- Giant foxtail plant response rating [13, 25]: 0
- Plant response rating, Giant foxtail [13, 26]: 0
- Corn plant response rating [14, 21]: 0
- Corn plant response rating (0 to 10 scale) ([14]; Preemergence, Rate 125 g/ha): 0
- Corn plant response rating [14, 22]: 0
- Plant response rating, Corn [14, 23]: 0
- Corn plant response rating [14, 24]: 0
- Corn plant response rating [14, 25]: 0
- Plant response rating, Corn [14, 26]: 0
- Corn plant response rating [14, 27]: 0
- Sugarbeets plant response rating [15, 21]: 0
- Sugarbeets plant response rating (0 to 10 scale) ([15]; Preemergence, Rate 125 g/ha): 0
- Sugarbeets plant response rating [15, 22]: 0
- Plant response rating, Sugarbeets [15, 23]: 0
- Sugarbeets plant response rating [15, 24]: 0
- Sugarbeets plant response rating [15, 25]: 0
- Plant response rating, Sugarbeets [15, 26]: 0
- Morningglory plant response rating [16, 21]: 0
- Morningglory plant response rating (0 to 10 scale) ([16]; Preemergence, Rate 125 g/ha): 0
- Morningglory plant response rating [16, 22]: 0
- Plant response rating, Morningglory [16, 23]: 0
- Morningglory plant response rating [16, 24]: 0
- Morningglory plant response rating [16, 25]: 3
- Plant response rating, Morningglory [16, 26]: 3
